From publication PMC6792352, “Limited Chemical Structural Diversity Found to Modulate Thyroid Hormone Receptor in the Tox21 Chemical Library” (Environmental Health Perspectives, 2019)
Structures can show the parent of a compound that is named as a salt. Where two headings read alike, the source gives them in different places.

Legend:
[1] = test system: GH3-TRE-Luc cell line; settings: read-out: AC50 (uM) modified / 1000, viability, 1 nM T3 present, 24 h
[2] = in vitro; settings: rat, gh3-tre-luc cells, AC50 (uM) modified / 1000

**Q.** Which results are given for `CC(C)=CC1C(C(=O)OCc2coc(Cc3ccccc3)c2)C1(C)C` (stereo not drawn) [Resmethrin]?
**A.** CC50 ([1]; Tox21_110001=Tox21_300920): 55.3 µM; CC50 at 24 h [2]: > 90 µM

**Q.** For `Nc1ccc(N)cc1` [1,4-Benzenediamine], which CC50 ([1]; Tox21_110001=Tox21_302943) is on record?
**A.** 68.9 µM

**Q.** What about the CC50 at 24 h [2] of the same molecule?
**A.** 68.8 µM

**Q.** What does the source list for `Nc1cc([N+](=O)[O-])ccc1O` [2-Amino-4-nitrophenol]?
**A.** CC50 ([1]; Tox21_110001=Tox21_302788): 48.2 µM; CC50 at 24 h [2]: 62.3 µM

**Q.** Which CC50 ([1]; Tox21_110001=Tox21_113236) does the source give for `COc1cc2c(cc1O)CCN[C@]21CS[C@@H]2c3c(OC(C)=O)c(C)c4c(c3[C@H](COC1=O)N1[C@@H]2[C@H]2c3c(cc(C)c(OC)c3O)C[C@@H]([C@@H]1O)N2C)OCO4` [Trabectedin] here?
**A.** 0.0049 µM

**Q.** And the CC50 at 24 h [2]?
**A.** 0.00433 µM

**Q.** Which results are given for `CCN(CCN)c1cccc(C)c1` [N-Ethyl-N-(3-methylphenyl)ethane-1,2-diamine]?
**A.** CC50 ([1]; Tox21_110001=Tox21_303371): 69.9 µM; CC50 at 24 h [2]: 61.5 µM

**Q.** With `CCCCCCCCCCCCc1ccccc1S(=O)(=O)O` [Sodium dodecylbenzenesulfonate] as the molecule, how does the CC50 ([1]; Tox21_110001=Tox21_300506) read?
**A.** 77.4 µM

**Q.** What about the CC50 at 24 h [2] of the same molecule?
**A.** 49.5 µM

**Q.** With `CCCCCCCCCCCCOC(=O)c1cc(O)c(O)c(O)c1` [Lauryl gallate] as the molecule, how does the CC50 ([1]; Tox21_110001=Tox21_303487) read?
**A.** 3.66 µM

**Q.** And the CC50 at 24 h [2]?
**A.** 2.89 µM

**Q.** Which CC50 ([1]; Tox21_110001=Tox21_113297) does the source give for `Oc1cccc(-c2c3nc(c(-c4cccc(O)c4)c4ccc([nH]4)c(-c4cccc(O)c4)c4nc(c(-c5cccc(O)c5)c5ccc2[nH]5)CC4)C=C3)c1` [Temoporfin] here?
**A.** 11.2 µM

**Q.** And the CC50 at 24 h [2]?
**A.** 13.6 µM

**Q.** With `C[C@H](CCC(=O)O)[C@H]1CC[C@H]2[C@@H]3CC[C@@H]4C[C@H](O)CC[C@]4(C)[C@H]3CC[C@]12C` [Lithocholic acid] as the molecule, how does the CC50 ([1]; Tox21_110001=Tox21_302791) read?
**A.** 47.9 µM

**Q.** What about the CC50 at 24 h [2] of the same molecule?
**A.** 24.5 µM

**Q.** What does the source list for `CN1CCc2cccc3c2[C@H]1Cc1ccc(O)c(O)c1-3` [Apomorphine hydrochloride hydrate]?
**A.** CC50 ([1]; Tox21_110001=Tox21_303480): 26.7 µM; CC50 at 24 h [2]: 48.2 µM

**Q.** Which CC50 ([1]; Tox21_110001=Tox21_111329) does the source give for `CO[C@H]1/C=C/O[C@@]2(C)Oc3c(C)c(O)c4c(O)c(c(/C=N/N5CCN(C)CC5)c(O)c4c3C2=O)NC(=O)/C(C)=C\C=C\[C@H](C)[C@H](O)[C@@H](C)[C@@H](O)[C@@H](C)[C@H](OC(C)=O)[C@@H]1C` [Rifampicin] here?
**A.** 24.2 µM

**Q.** What about the CC50 ([1]; Tox21_110001=Tox21_300550) of the same molecule?
**A.** 32.4 µM

**Q.** And the CC50 at 24 h [2]?
**A.** 29.8 µM

**Q.** With `CCOC(=O)C1=C[C@]2(CC)CCCN3CCc4c(n1c1ccccc41)[C@@H]32` [Vinpocetine] as the molecule, how does the CC50 ([1]; Tox21_110001=Tox21_110839) read?
**A.** 12 µM

**Q.** And the CC50 at 24 h [2]?
**A.** 22.7 µM

**Q.** Which results are given for `OC(c1ccc(Cl)cc1)(c1cncnc1)c1ccccc1Cl` (stereo not drawn) [Fenarimol]?
**A.** CC50 ([1]; Tox21_110001=Tox21_300650): 82.8 µM; CC50 at 24 h [2]: > 90 µM

**Q.** What does the source list for `Cc1cc(N=Nc2ccccc2C)ccc1N` [2-Amino-5-azotoluene]?
**A.** CC50 ([1]; Tox21_110001=Tox21_300300): 40.4 µM; CC50 at 24 h [2]: 50.9 µM

**Q.** What does the source list for `CC(C)(C)c1ccc(O)c(C(C)(C)C)c1` [2,4-Di-tert-butylphenol]?
**A.** CC50 ([1]; Tox21_110001=Tox21_300114): 29.7 µM; CC50 at 24 h [2]: 47.6 µM

**Q.** What does the source list for `C=CC(=O)OCCCCCCOC(=O)C=C` [1,6-Hexanediol diacrylate]?
**A.** CC50 ([1]; Tox21_110001=Tox21_303168): 46.1 µM; CC50 at 24 h [2]: 57.6 µM

**Q.** Which results are given for `Oc1ccc(C(c2ccc(O)cc2)C(Cl)(Cl)Cl)cc1` [2,2-Bis(4-hydroxyphenyl)-1,1,1-trichloroethane]?
**A.** CC50 ([1]; Tox21_110001=Tox21_300656): 55.1 µM; CC50 at 24 h [2]: 74.8 µM

**Q.** Which results are given for `Oc1ccc(/C=C/c2cc(O)cc(O)c2)cc1` [Resveratrol]?
**A.** CC50 ([1]; Tox21_110001=Tox21_303376): 36.1 µM; CC50 at 24 h [2]: 35 µM

**Q.** For `CCCN(CCOc1c(Cl)cc(Cl)cc1Cl)C(=O)n1ccnc1` [Prochloraz], which CC50 ([1]; Tox21_110001=Tox21_301179) is on record?
**A.** 70.8 µM

**Q.** What about the CC50 at 24 h [2] of the same molecule?
**A.** 81.4 µM

**Q.** With `CC[C@H](C)C(=O)O[C@H]1C[C@@H](C)C=C2C=C[C@H](C)[C@H](CC[C@@H]3C[C@@H](O)CC(=O)O3)[C@H]21` [Lovastatin] as the molecule, how does the CC50 ([1]; Tox21_110001=Tox21_110888) read?
**A.** 43 µM

**Q.** What about the CC50 ([1]; Tox21_110001=Tox21_300268) of the same molecule?
**A.** 67 µM

**Q.** What about the CC50 at 24 h [2] of the same molecule?
**A.** 73.4 µM

**Q.** With `O=[N+]([O-])c1cc(N(CCO)CCO)ccc1NCCO` [HC Blue 2] as the molecule, how does the CC50 ([1]; Tox21_110001=Tox21_302947) read?
**A.** 91.6 µM

**Q.** And the CC50 at 24 h [2]?
**A.** > 90 µM

**Q.** With `O=C(Nc1ccc([N+](=O)[O-])cc1Cl)c1cc(Cl)ccc1O` [Niclosamide] as the molecule, how does the CC50 ([1]; Tox21_110001=Tox21_110209) read?
**A.** 0.618 µM

**Q.** What about the CC50 at 24 h [2] of the same molecule?
**A.** 0.487 µM

**Q.** Which CC50 ([1]; Tox21_110001=Tox21_110111) does the source give for `Clc1ccccc1C(c1ccccc1)(c1ccccc1)n1ccnc1` [Clotrimazole] here?
**A.** 8.57 µM

**Q.** And the CC50 at 24 h [2]?
**A.** 5.21 µM

**Q.** Which CC50 ([1]; Tox21_110001=Tox21_201539) does the source give for `O=C(O)C1=NN(c2ccc(S(=O)(=O)O)cc2)C(=O)C1N=Nc1ccc(S(=O)(=O)O)cc1` (stereo not drawn) [FD&C Yellow 5] here?
**A.** 43.1 µM

**Q.** What about the CC50 ([1]; Tox21_110001=Tox21_300554) of the same molecule?
**A.** 61.1 µM

**Q.** What about the CC50 at 24 h [2] of the same molecule?
**A.** > 50 µM

**Q.** For `O=Cc1ccccc1C=O` [1,2-Benzenedicarboxaldehyde], which CC50 ([1]; Tox21_110001=Tox21_112347) is on record?
**A.** 8.06 µM

**Q.** What about the CC50 at 24 h [2] of the same molecule?
**A.** 4.89 µM

**Q.** Which CC50 ([1]; Tox21_110001=Tox21_300305) does the source give for `CC1=C(/C=C/C(C)=C/C=C/C(C)=C/C(=O)O)C(C)(C)CCC1` [all trans-Retinoic acid] here?
**A.** 77.6 µM

**Q.** And the CC50 at 24 h [2]?
**A.** 71.8 µM

**Q.** What does the source list for `CNCCCC12CCC(c3ccccc31)c1ccccc12` [Maprotiline]?
**A.** CC50 ([1]; Tox21_110001=Tox21_110200): 11.7 µM; CC50 at 24 h [2]: 6.11 µM

**Q.** With `CCCCCCCCCCCCCCCC[N+](C)(C)Cc1ccccc1` [Benzylhexadecyldimethylammonium chloride] as the molecule, how does the CC50 ([1]; Tox21_110001=Tox21_112574) read?
**A.** 13.4 µM

**Q.** What about the CC50 at 24 h [2] of the same molecule?
**A.** 21.5 µM

**Q.** Which CC50 ([1]; Tox21_110001=Tox21_302725) does the source give for `CC(CCc1ccccc1)NCC(O)c1ccc(O)c(C(N)=O)c1` (stereo not drawn) [Labetalol hydrochloride] here?
**A.** 24.7 µM

**Q.** What about the CC50 at 24 h [2] of the same molecule?
**A.** 14.1 µM

**Q.** With `c1cc(N(CC2CO2)CC2CO2)ccc1OCC1CO1` (stereo not drawn) [4-(Diglycidylamino)phenyl glycidyl ether] as the molecule, how does the CC50 ([1]; Tox21_110001=Tox21_302646) read?
**A.** 25.4 µM

**Q.** What about the CC50 at 24 h [2] of the same molecule?
**A.** 30.4 µM

**Q.** Which CC50 ([1]; Tox21_110001=Tox21_303333) does the source give for `O=[N+]([O-])c1ccc(Nc2ccccc2)cc1` [4-Nitro-N-phenylaniline] here?
**A.** 76.1 µM

**Q.** What about the CC50 at 24 h [2] of the same molecule?
**A.** 45.4 µM

**Q.** Which CC50 ([1]; Tox21_110001=Tox21_301634) does the source give for `O=C1OC2(c3ccccc31)c1cc(I)c(O)c(I)c1Oc1c2cc(I)c(O)c1I` [Erythrosin B] here?
**A.** 19.8 µM

**Q.** And the CC50 at 24 h [2]?
**A.** 16.4 µM

**Q.** For `CCc1cc(C(C)(C)C)c(O)c(C(C)(C)C)c1` [2,6-Di-tert-butyl-4-ethylphenol], which CC50 ([1]; Tox21_110001=Tox21_303397) is on record?
**A.** 85.5 µM

**Q.** And the CC50 at 24 h [2]?
**A.** 72.5 µM

**Q.** Which CC50 ([1]; Tox21_110001=Tox21_113093) does the source give for `CO/N=C1\C[C@]2(C[C@@H]3C[C@@H](C/C=C(\C)C[C@@H](C)/C=C/C=C4\CO[C@@H]5[C@H](O)C(C)=C[C@@H](C(=O)O3)[C@]45O)O2)O[C@H](/C(C)=C/C(C)C)[C@H]1C` [Moxidectin] here?
**A.** 4.45 µM

**Q.** And the CC50 at 24 h [2]?
**A.** 5.14 µM

**Q.** For `c1ccc2sc(SSN3CCOCC3)nc2c1` [2-(Morpholin-4-yldithio)-1,3-benzothiazole], which CC50 ([1]; Tox21_110001=Tox21_303278) is on record?
**A.** 35 µM

**Q.** And the CC50 at 24 h [2]?
**A.** 18.6 µM

**Q.** With `ClC1=C(Cl)C(Cl)(Cl)C(Cl)=C1Cl` [Hexachlorocyclopentadiene] as the molecule, how does the CC50 ([1]; Tox21_110001=Tox21_302780) read?
**A.** 58 µM

**Q.** What about the CC50 at 24 h [2] of the same molecule?
**A.** > 90 µM
